According to BindingDB's records for patent US20250313563 (The Broad Institute, 2025):
“And” between values parts separate entries of the source, which are not always exact repeats. Identical values can stand only once.

Key:
[1] = target: Glycogen synthase kinase-3 alpha (Homo sapiens, UniProt P49840); test: TR-FRET Assay
Summary of the method: (§1)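 TR-FRET readout: streptavidin-d2 (40 nM in added detection mix) plus Tb-anti-pSer641 Ab (2 nM in mix). Steps were 30 min compound preincubation, kinase reaction, then EDTA stop.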

[2] = target: Glycogen synthase kinase-3 beta (Homo sapiens, UniProt P49841); test: TR-FRET Assay
Summary of the method: as §1

Glycogen synthase kinase-3 beta, sequence (P49841 whole entry): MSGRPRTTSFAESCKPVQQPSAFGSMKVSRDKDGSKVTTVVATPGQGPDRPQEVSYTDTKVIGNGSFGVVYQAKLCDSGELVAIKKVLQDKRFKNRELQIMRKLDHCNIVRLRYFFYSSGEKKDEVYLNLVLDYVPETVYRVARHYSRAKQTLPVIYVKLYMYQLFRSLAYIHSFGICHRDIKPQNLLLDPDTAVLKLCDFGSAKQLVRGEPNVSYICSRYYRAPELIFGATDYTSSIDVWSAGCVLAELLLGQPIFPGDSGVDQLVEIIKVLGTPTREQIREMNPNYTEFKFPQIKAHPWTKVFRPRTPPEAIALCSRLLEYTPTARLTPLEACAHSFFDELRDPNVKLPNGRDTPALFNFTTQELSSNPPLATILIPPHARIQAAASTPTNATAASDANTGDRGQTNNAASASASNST
Glycogen synthase kinase-3 alpha, sequence (P49840 whole entry): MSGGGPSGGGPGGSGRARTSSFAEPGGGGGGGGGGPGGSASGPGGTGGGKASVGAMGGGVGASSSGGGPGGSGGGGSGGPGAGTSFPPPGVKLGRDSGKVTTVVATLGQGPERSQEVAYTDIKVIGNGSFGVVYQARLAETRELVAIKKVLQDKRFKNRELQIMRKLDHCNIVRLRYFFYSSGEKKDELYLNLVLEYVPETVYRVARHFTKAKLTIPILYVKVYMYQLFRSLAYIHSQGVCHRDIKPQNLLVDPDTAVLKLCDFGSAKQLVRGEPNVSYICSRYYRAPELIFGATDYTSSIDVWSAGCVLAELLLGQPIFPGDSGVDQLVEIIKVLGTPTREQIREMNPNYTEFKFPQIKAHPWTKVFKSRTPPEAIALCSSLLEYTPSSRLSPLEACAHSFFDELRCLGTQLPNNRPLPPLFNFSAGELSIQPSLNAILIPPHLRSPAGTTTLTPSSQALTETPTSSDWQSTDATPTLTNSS

SMILES | IC50 [1] | IC50 [2]
CC1(C)CC(=O)C2=C(C1)NC1=C(CN=N1)[C@]21CCN(S(=O)(=O)c2ccccc2F)C1 [US20250313563, Compound 945718] | < 100 nM | < 100 nM and 100 to 1000 nM
CC1(C)CC2=C(C(=O)N1)C1(CCN(S(C)(=O)=O)CC1)C1=C(N=NC1)N2 [US20250313563, Compound 943959] | < 100 nM | 100 to 1000 nM
CC1(C)CC(=O)C2=C(C1)NC1=C(CN=N1)C21CN(S(=O)(=O)Cc2ccccc2)C1 [US20250313563, Compound 943543] | < 100 nM | < 100 nM
CC1(C)CC(=O)C2=C(C1)NC1=C(CN=N1)[C@]21C[C@@H](c2ccncc2)C1 [US20250313563, Compound 889665] | < 100 nM | < 100 nM and 100 to 1000 nM
CCC1(c2cccc(C3=CN=NC3)c2)C2=C(CC(C)(C)CC2=O)NC2N=NC(C)=C21 (stereo unspecified) [US20250313563, Compound 883994] | < 100 nM | < 100 nM
CC1(C)CC(=O)C2=C(C1)NC1=C(CN=N1)C21CCN(S(=O)(=O)c2ccc(F)cc2)CC1 [US20250313563, Compound 893311] | < 100 nM and 100 to 1000 nM | < 100 nM and 1000 to 5000 nM
COc1cccc(C2(C)C3=C(N=NC3)NC3=C2C(=O)CC(C)(C)C3)c1 (stereo unspecified) [US20250313563, Compound 792342] | 100 to 1000 nM | 100 to 1000 nM
CC[C@@H]1C[C@@]2(CCO1)C1=C(N=NC1)NC1=C2C(=O)CC(C)(C)C1 [US20250313563, Compound 907328] | 100 to 1000 nM | 1000 to 5000 nM
CC1(C)CC(=O)C2=C(C1)NC1=C(CN=N1)C21CCC(C(=O)N2CCCC2)CC1 (stereo unspecified) [US20250313563, Compound 945394] | 100 to 1000 nM | 1000 to 5000 nM
CC1(C)CC(=O)C2=C(C1)NC1N=NC=C1C21CCCN(c2ccncn2)CC1 (stereo unspecified) [US20250313563, Compound 917145] | 1000 to 5000 nM | 1000 to 5000 nM
COc1ccc(S(=O)(=O)N2CCC3(CC2)C2=C(N=NC2)NC2=C3C(=O)CC(C)(C)C2)c(C)c1C [US20250313563, Compound 945662] | < 100 nM | 100 to 1000 nM
CC1(C)CC(=O)C2=C(C1)NC1=C(CN=N1)C21CC(c2ccccc2)C1 (stereo unspecified) [US20250313563, Compound 917081] | < 100 nM | < 100 nM
CC1(C)CC(=O)C2=C(C1)NC1=C(CN=N1)[C@]2(C)c1cc(C(F)(F)F)ccc1F [US20250313563, Compound 816798] | < 100 nM | 100 to 1000 nM
CC1(C)CC(=O)C2=C(C1)NC1=C(CN=N1)[C@@]21CCOC2(CCC2)C1 [US20250313563, Compound 897755] | 1000 to 5000 nM | 1000 to 5000 nM
Cn1cc(S(=O)(=O)N2CC[C@]3(C2)C2=C(N=NC2)NC2=C3C(=O)CC(C)(C)C2)cn1 [US20250313563, Compound 951726] | < 100 nM and 1000 to 5000 nM | < 100 nM and 1000 to 5000 nM
CC[C@]1(c2cccc(N3CCCC3)c2)C2=C(CC(C)(C)CC2=O)NC2N=NC(C(F)(F)F)=C21 (stereo partly specified) [US20250313563, Compound 819574] | < 100 nM | < 100 nM

SMILES | IC50 [1] | IC50 [2]
CCC1(c2cccc(-c3cc(C)ncc3F)c2)C2=C(CC(C)(C)NC2=O)NC2N=NC(C(F)(F)F)=C21 (stereo unspecified) [US20250313563, Compound 948762] | < 100 nM | < 100 nM
CC1(C)CC(=O)C2=C(C1)NC1N=NC(Br)=C1C21CCc2c(F)cccc21 (stereo unspecified) [US20250313563, Compound 801358] | < 100 nM | < 100 nM
Cc1nccc([C@H]2CC[C@@]3(CC2)C2=C(N=NC2)NC2=C3C(=O)CC(C)(C)C2)c1C [US20250313563, Compound 950477] | 100 to 1000 nM | 100 to 1000 nM
CC1(C)CC(=O)C2=C(C1)NC1=C(CN=N1)[C@]21CCCN(S(=O)(=O)C2CC2)CC1 [US20250313563, Compound 932659] | < 100 nM | 100 to 1000 nM
CCC1(c2cccc(N3CCCC3)c2)C2=C(CC(C)(C)NC2=O)NC2N=NC(C)=C21 (stereo unspecified) [US20250313563, Compound 947673] | < 100 nM | 100 to 1000 nM
CC1(C)CC(=O)C2=C(C1)NC1=C(CN=N1)C21CCN(S(=O)(=O)c2cc(Cl)ccc2Cl)CC1 [US20250313563, Compound 948122] | < 100 nM | 100 to 1000 nM
Cn1ccc(S(=O)(=O)N2CCC[C@]3(CC2)C2=CN=NC2NC2=C3C(=O)CC(C)(C)C2)n1 (stereo partly specified) [US20250313563, Compound 932640] | < 100 nM | < 100 nM
Cn1ccc(S(=O)(=O)N2CCC3(CC2)C2=C(N=NC2)NC2=C3C(=O)CC(C)(C)C2)n1 [US20250313563, Compound 901471] | < 100 nM and 100 to 1000 nM | < 100 nM and 1000 to 5000 nM
CN1C[C@]2(C3=C(CC(C)(C)CC3=O)NC3N=NC(CC(C)(C)C)=C32)c2ccccc21 (stereo partly specified) [US20250313563, Compound 125978] | 1000 to 5000 nM | 100 to 1000 nM
CC1(C)CC(=O)C2=C(C1)NC1=C(CN=N1)C2(C)c1cc(F)cc(F)c1 (stereo unspecified) [US20250313563, Compound 785735] | 100 to 1000 nM | > 5000 nM
CC1(C)CC(=O)C2=C(C1)NC1=NN=C(Br)C1C21CCNc2ccccc21 (stereo unspecified) [US20250313563, Compound 810460] | 1000 to 5000 nM | > 5000 nM
CC1(C)CC(=O)C2=C(C1)NC1N=NC(CCC(F)(F)F)=C1C2(C)c1ccccc1 (stereo unspecified) [US20250313563, Compound 828845] | 100 to 1000 nM | 100 to 1000 nM
CC[C@@]1(c2cccc(-c3cnn4c3CCCC4)c2)C2=C(CC(C)(C)NC2=O)NC2N=NC(C)=C21 (stereo partly specified) [US20250313563, Compound 947817] | < 100 nM | < 100 nM
CC[C@]1(c2cccc(-c3c(C)nn(C)c3C)c2)C2=C(CC(C)(C)CC2=O)NC2N=NC(C)=C21 (stereo partly specified) [US20250313563, Compound 913043] | < 100 nM | < 100 nM and 100 to 1000 nM
CC1(C)CC(=O)C2=C(C1)NC1=C(CN=N1)C21CCCNCC1 (stereo unspecified) [US20250313563, Compound 889571] | > 5000 nM | > 5000 nM
Cn1nccc1CN1CC2(C1)C1=C(N=NC1)NC1=C2C(=O)CC(C)(C)C1 [US20250313563, Compound 932653] | 1000 to 5000 nM | > 5000 nM

The next lines start with the values.

IC50 [1] | IC50 [2] | SMILES
100 to 1000 nM | 1000 to 5000 nM | CC[C@@]1(c2cccc(-c3cc[n+]([O-])cc3[S+](C)[O-])c2)C2=CN=NC2NC2=C1C(=O)CC(C)(C)C2 (stereo partly specified) [US20250313563, Compound 947570]
< 100 nM | 1000 to 5000 nM | CC[C@@]1(c2cccc(-c3cnn(C(F)F)c3)c2)C2=CN=NC2NC2=C1C(=O)NC(C)(C)C2 (stereo partly specified) [US20250313563, Compound 950254]
< 100 nM | < 100 nM | CC[C@@]1(c2cccc(-c3ccncc3C)c2)C2=CN=NC2NC2=C1C(=O)N[C@]1(CCCOC1)C2 (stereo partly specified) [US20250313563, Compound 947910]
100 to 1000 nM | 1000 to 5000 nM | CC[C@@]1(c2cccc(-c3cnn(C)c3)c2)C2=CN=NC2NC2=C1C(=O)CC(C)(C)C2 (stereo partly specified) [US20250313563, Compound 819576]
> 5000 nM | > 5000 nM | CC[C@@]1(c2cccc(C(F)(F)F)c2)C2=CN=NC2NC2=C1C(=O)N(c1ccccc1C)CC2 (stereo partly specified) [US20250313563, Compound 949129]
< 100 nM | 100 to 1000 nM | CC[C@@]1(c2cccc(-c3ccnc(C)c3F)c2)C2=CN=NC2NC2=C1C(=O)NC(C)(C)C2 (stereo partly specified) [US20250313563, Compound 948306]
< 100 nM | 100 to 1000 nM | CCC1(c2cccc(-c3cccnc3)c2)C2=CN=NC2NC2=C1C(=O)CC(C)(C)C2 (stereo unspecified) [US20250313563, Compound 791272]
100 to 1000 nM | > 5000 nM | CCC1(c2cccc(C(F)(F)F)c2)C2=CN=NC2NC2=C1C(=O)N(Cc1ccccc1)CC2 (stereo unspecified) [US20250313563, Compound 897749]
> 5000 nM | > 5000 nM | CC[C@]1(c2ccccc2)C2=CN=NC2NC2=C1C(=O)[C@@H](C)C[C@H]2C (stereo partly specified) [US20250313563, Compound 909219]
< 100 nM | < 100 nM | CCCS(=O)(=O)c1cccc(C2(CC)C3=CN=NC3NC3=C2C(=O)CC(C)(C)C3)c1 (stereo unspecified) [US20250313563, Compound 917131]
< 100 nM | 100 to 1000 nM | CC[C@]1(c2ccccc2)C2=CN=NC2NC2=C1C(=O)CC1(CCCC1)C2 (stereo partly specified) [US20250313563, Compound 789562]
100 to 1000 nM | 1000 to 5000 nM | CC[C@@]1(c2cccc(-c3ccnc(C)c3)c2)C2=C(CC(C)(C)CC2=O)NC2N=NC(C(F)(F)F)=C21 (stereo partly specified) [US20250313563, Compound 917289]
< 100 nM and 100 to 1000 nM | < 100 nM and 1000 to 5000 nM | CC[C@@]1(c2cccc(C3CC3)c2)C2=CN=NC2NC2=C1C(=O)CC(C)(C)C2 (stereo partly specified) [US20250313563, Compound 811557]
100 to 1000 nM | 1000 to 5000 nM | CC[C@]1(c2ccc(C)cc2)C2=CN=NC2NC2=C1C(=O)CC(C)(C)C2 (stereo partly specified) [US20250313563, Compound 789457]
< 100 nM | 100 to 1000 nM | CCC1(c2cccc(-c3ccnc(C(F)(F)F)c3)c2)C2=C(CC(C)(C)CC2=O)NC2N=NC(C)=C21 (stereo unspecified) [US20250313563, Compound 883989]
< 100 nM | < 100 nM | CCC1(c2cccc(C(F)(F)C(F)(F)F)c2)C2=CN=NC2NC2=C1C(=O)CC(C)(C)C2 (stereo unspecified) [US20250313563, Compound 948615]
1000 to 5000 nM | > 5000 nM | CC[C@]1(c2cccc(-c3c(C)nn(C)c3C)c2)C2=CN=NC2NC2=C1C(=O)NC(C)(C)C2 (stereo partly specified) [US20250313563, Compound 947413]
< 100 nM and 100 to 1000 nM | 100 to 1000 nM and > 5000 nM | CCC1(c2cccc(-c3cc(C)ncc3F)c2)C2=CN=NC2NC2=C1C(=O)NC(C)(C)C2 (stereo unspecified) [US20250313563, Compound 947401]
< 100 nM and 100 to 1000 nM | < 100 nM and 1000 to 5000 nM | CC[C@]1(c2cccc(C3CCC3)c2)C2=CN=NC2NC2=C1C(=O)CC(C)(C)C2 (stereo partly specified) [US20250313563, Compound 949521]
< 100 nM | < 100 nM | CC[C@]1(c2cccc([C@@H]3CCOC3)c2)C2=CN=NC2NC2=C1C(=O)CC(C)(C)C2 (stereo partly specified) [US20250313563, Compound 889557]
100 to 1000 nM | 1000 to 5000 nM | CCN(c1cccc([C@]2(CC)C3=CN=NC3NC3=C2C(=O)CC(C)(C)C3)c1)c1ncccn1 (stereo partly specified) [US20250313563, Compound 947334]
